What follows are molecules tested against T1, p101/p110γ protein (PI3Kγ) (Homo sapiens, UniProt P48736) (assay: PI3Kγ In Vitro Kinase Assay). Details: purified recombinant p101/p110γ with G protein β1/γ2 subunits; 20 μM ATP, 25 μM PIP2; 20 minutes at room temperature; radioactive PIP3 readout.
T1 construct: HA; made in house; host or cells: Spodoptera frugiperda (Sf9) cells, baculovirus coinfection
Format: biochemical
Experimental: Spodtera frugiperda cells, grown in ESF921 media, were coinfected with baculovirus expressing a glu-tagged […] and baculovirus expressing an HA-tagged p110γ, at a 3:1 ratio of p110 baculovirus to p110γ baculovirus. Sf9 cells were grown to 1×10^7 total cells/mL in 10L bioreactors and harvested 48-72 hours post infection. Samples of infected cells were then tested for expression of p101/p110γ PI3 kinase by immunoprecipitation and Western Blot analysis methods (see below).
To purify PI3Kγ, 4 volumes of room temperature hypotonic lysis buffer (1 mM MgCl2, 1 mM DTT, 5 mM EGTA, 1 mM Pefabloc, 0.5 μM aprotinin, […], 2 μM pepstatin, 5 μM E64, pH 8) per gram of cell paste, was poured onto frozen cell pellets with stirring, then lysed in a nitrogen “bomb” at 400 psi (599HC T316, Parr Instrument Co, Moline, Ill.). NaCl was added to 150 mM, and sodium cholate was added to 1% and mixed for another 45 minutes. The lysates were clarified by centrifugation for 25 minutes at 14,000 rpm. The lysates were then loaded over anti-glu-linked Protein-G Sepaharose beads (Covance Research Products, Richmond, Calif.) using 20 mL resin/50 g cell paste. The column was washed with 15 volumes of wash buffer (1 mM DTT, 0.2 mM EGTA, 1 mM Pefabloc, 0.5 μM aprotinin, 5 μM leupeptin, 2 μM pepstatin, 5 μM E64, 150 mM NaCl, 1% sodium cholate, pH 8). PI3Kγ was eluted with 6 column volumes of wash buffer that contain 100 μg/mL of a peptide that competes for binding of the glu tag. The column fractions with the eluted protein (determined by taking OD280 readings) were collected and dialyzed in 0.2 mM EGTA, 1 mM DTT, 1 mM Pefabloc, 5 μM leupeptin, 0.5% sodium cholate, 150 mM NaCl, and 50% glycerol, pH 8. The fractions were stored at −80° C. until further use.
Spodtera frugiperda cells were coinfected with baculovirus expressing a glu-tagged G protein β1 and baculovirus expressing a […] at a 1:1 ratio of glu-tagged G protein β1 baculovirus to G protein β2 baculovirus. Sf9 cells are grown in 10 L bioreactors and harvested 48-72 hours post infection. Samples of infected cells were tested for G protein β1/β2 expression by Western Blot analysis, as described below. Cell lysates were homogenized and loaded onto a column of glu-tagged beads as in Biological Example 1 and competed off the column with a glu peptide as described in Biological Example 1.
The inhibitory properties of the compounds in Table 1 were assayed in an in vitro PI3K assay. In a 96-well polypropylene plate, each well was spotted with 2 μL of 50 times the desired final concentration of compound in DMSO. Purified recombinant p101/p110γ protein (0.03 μg; ˜2.7 nM) and G protein β1/γ2 subunits (0.09 μg; −57.7 nM) for each reaction was combined in the assay buffer (30 mM HEPES, 100 mM NaCl, 1 mM EGTA, and 1 mM DTT). ATP and [γ-^32P-ATP] (0.09 μCi) were added to this mixture so that the final ATP concentration in the reaction was 20 μM. Lipid micelles were formed by sonicating phosphatidylinositol-4,5-diphosphate (PIP2), phosphatidylethanolamine (PE), and Na-cholate in the assay buffer for 10 minutes, adding MgCL2 and incubating on ice for 20 minutes, for final concentrations of 25 μM PIP2, 300 μM PE, 0.02% Na-cholate, and 10 mM MgCl2 in the reaction. The reactions were started by adding equal volumes lipid and enzyme mixture in a total volume of 50 μL, allowed to run for 20 minutes at room temperature, and stopped with 100 μL 75 mM H3PO4. The lipid product was transferred to a glass fiber filter plate and washed with 75 mM H3PO4 several times. The presence of radioactive lipid product (PIP3) was measured by adding Wallac Optiphase mix to each well and counting in a Wallac 1450 Trilux plate reader (PerkinElmer Life Sciences Inc., Boston, Mass. 02118). The IC50 for each compound tested is reported in μM in Table 1: […]

T1 sequence (P48736 whole entry, species assumed): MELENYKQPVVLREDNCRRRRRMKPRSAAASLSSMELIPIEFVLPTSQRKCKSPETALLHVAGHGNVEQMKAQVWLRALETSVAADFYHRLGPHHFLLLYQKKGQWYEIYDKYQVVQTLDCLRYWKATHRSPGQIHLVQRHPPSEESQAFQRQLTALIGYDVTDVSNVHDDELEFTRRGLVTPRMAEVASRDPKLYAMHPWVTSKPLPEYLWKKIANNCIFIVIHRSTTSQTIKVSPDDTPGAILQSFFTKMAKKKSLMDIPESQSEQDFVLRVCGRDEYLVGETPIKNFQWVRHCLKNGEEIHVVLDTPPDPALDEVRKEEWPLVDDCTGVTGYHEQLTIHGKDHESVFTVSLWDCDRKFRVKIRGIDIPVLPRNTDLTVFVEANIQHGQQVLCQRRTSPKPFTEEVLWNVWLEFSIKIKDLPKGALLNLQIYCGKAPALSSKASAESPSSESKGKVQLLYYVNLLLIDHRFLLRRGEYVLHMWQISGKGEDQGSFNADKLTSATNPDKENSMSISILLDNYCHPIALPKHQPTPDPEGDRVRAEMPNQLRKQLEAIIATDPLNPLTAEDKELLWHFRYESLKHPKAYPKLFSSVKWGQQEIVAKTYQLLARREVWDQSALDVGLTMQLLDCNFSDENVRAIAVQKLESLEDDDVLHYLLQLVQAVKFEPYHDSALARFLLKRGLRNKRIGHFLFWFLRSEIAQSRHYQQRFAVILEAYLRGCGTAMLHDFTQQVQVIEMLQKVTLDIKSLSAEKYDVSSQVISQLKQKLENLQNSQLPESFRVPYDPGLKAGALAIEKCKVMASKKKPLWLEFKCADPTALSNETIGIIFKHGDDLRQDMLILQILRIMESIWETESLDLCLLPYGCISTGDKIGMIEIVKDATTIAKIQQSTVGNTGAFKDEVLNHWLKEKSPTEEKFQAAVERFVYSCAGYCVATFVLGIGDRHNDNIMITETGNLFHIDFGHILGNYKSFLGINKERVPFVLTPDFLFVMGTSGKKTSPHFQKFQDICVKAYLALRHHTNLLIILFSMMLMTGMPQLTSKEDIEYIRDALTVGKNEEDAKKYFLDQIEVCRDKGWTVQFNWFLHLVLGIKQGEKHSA
T1 sequence (Q8WYR1 whole entry partner, species assumed): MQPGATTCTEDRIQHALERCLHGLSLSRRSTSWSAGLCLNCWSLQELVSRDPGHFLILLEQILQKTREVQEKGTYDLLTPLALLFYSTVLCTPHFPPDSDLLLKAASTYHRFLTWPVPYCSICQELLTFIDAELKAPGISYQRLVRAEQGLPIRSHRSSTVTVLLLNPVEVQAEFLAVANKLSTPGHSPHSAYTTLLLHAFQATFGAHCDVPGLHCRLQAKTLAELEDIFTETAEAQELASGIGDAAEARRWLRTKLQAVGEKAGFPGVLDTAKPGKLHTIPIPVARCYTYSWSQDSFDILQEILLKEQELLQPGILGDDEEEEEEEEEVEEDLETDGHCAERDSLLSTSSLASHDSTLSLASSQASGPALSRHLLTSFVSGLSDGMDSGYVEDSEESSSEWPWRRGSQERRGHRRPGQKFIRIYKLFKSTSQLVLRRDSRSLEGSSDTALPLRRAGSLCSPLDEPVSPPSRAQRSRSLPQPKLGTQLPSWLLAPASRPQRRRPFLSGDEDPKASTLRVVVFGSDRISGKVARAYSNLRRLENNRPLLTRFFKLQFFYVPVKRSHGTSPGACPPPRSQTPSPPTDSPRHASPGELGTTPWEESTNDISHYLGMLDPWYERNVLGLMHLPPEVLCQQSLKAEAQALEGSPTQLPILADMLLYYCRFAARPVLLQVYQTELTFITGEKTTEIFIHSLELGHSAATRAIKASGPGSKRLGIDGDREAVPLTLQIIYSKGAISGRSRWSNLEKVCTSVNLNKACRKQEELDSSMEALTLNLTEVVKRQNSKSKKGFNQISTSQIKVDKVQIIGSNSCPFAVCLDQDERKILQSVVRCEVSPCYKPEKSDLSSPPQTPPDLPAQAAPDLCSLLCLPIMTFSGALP

How did the IC50 turn out when `CC(C)C(=O)N1CCOc2ccc(C=C3SC(=S)NC3=O)cc21` [Example 31, 5-(4-Isobutyryl-3,4-dihydro-2H-1,4-benzoxazin-6-ylmethylene)-2-thioxo-thiazolidin-4-one] was run?
Its IC50 is 0.009 µM.

Which IC50 does the source give for `O=C1NC(=S)SC1=Cc1ccc2c(c1)N(C(=O)C1CC1)CCO2` [Example 32, 5-(4-Cyclopropanecarbonyl-3,4-dihydro-2H-1,4-benzoxazin-6-ylmethylene)-2-thioxo-thiazolidin-4-one] here?
The IC50 was 4 µM.

For `O=C1NC(=S)SC1=Cc1ccc2c(c1)N(C(=O)C1CCCC1)CCO2` [Example 33, 5-(4-Cyclopentanecarbonyl-3,4-dihydro-2H-1,4-benzoxazin-6-ylmethylene)-2-thioxo-thiazolidin-4-one], which IC50 is on record?
Its IC50 is 0.014 µM.

With `CCCCCCC(=O)N1CCOc2ccc(C=C3SC(=S)NC3=O)cc21` [Example 34, 5-(4-Heptanoyl-3,4-dihydro-2H-1,4-benzoxazin-6-ylmethylene)-2-thioxo-thiazolidin-4-one] as the molecule, how does the IC50 read?
Its IC50 is 0.004 µM.

`O=C1NC(=S)SC1=Cc1ccc2c(c1)N(C(=O)Cc1cccs1)CCO2` [Example 35, 5-[4-(2-Thiophen-2-yl-acetyl)-3,4-dihydro-2H-1,4-benzoxazin-6-ylmethylene]-2-thioxo-thiazolidin-4-one] was tested. Which IC50 did it give?
The IC50 was 0.036 µM.

With `O=C1NC(=S)SC1=Cc1ccc2c(c1)N(C(=O)CCC1CCCC1)CCO2` [Example 36, 5-[4-(3-Cyclopentyl-propionyl)-3,4-dihydro-2H-1,4-benzoxazin-6-ylmethylene]-2-thioxo-thiazolidin-4-one] as the molecule, how does the IC50 read?
The IC50 was 0.005 µM.

`O=C1NC(=S)SC1=Cc1ccc2c(c1)N(C(=O)C=Cc1ccccc1)CCO2` [Example 37, 5-[4-(3-Phenyl-acryloyl)-3,4-dihydro-2H-1,4-benzoxazin-6-ylmethylene]-2-thioxo-thiazolidin-4-one] was tested. Which IC50 did it give?
Its IC50 is 0.007 µM.

For `O=C1NC(=S)SC1=Cc1ccc2c(c1)N(C(=O)COc1ccccc1)CCO2` [Example 38, 5-[4-(2-Phenoxy-acetyl)-3,4-dihydro-2H-1,4-benzoxazin-6-ylmethylene]-2-thioxo-thiazolidin-4-one], which IC50 is on record?
The IC50 was 0.025 µM.

Which IC50 does the source give for `O=C1NC(=S)SC1=Cc1ccc2c(c1)N(C(=O)COCc1ccccc1)CCO2` [Example 39, 5-[4-(2-Benzyloxy-acetyl)-3,4-dihydro-2H-1,4-benzoxazin-6-ylmethylene]-2-thioxo-thiazolidin-4-one] here?
The IC50 was 0.014 µM.

For `O=C1NC(=S)SC1=Cc1ccc2c(c1)N(C(=O)CSc1ccccc1)CCO2` [Example 40, 5-[4-(2-Phenylsulfanyl-acetyl)-3,4-dihydro-2H-1,4-benzoxazin-6-ylmethylene]-2-thioxo-thiazolidin-4-one], which IC50 is on record?
Its IC50 is 0.012 µM.

For `O=C1NC(=S)SC1=Cc1ccc2c(c1)N(C(=O)c1cccs1)CCO2` [Example 42, 5-[4-(Thiophene-2-carbonyl)-3,4-dihydro-2H-1,4-benzoxazin-6-ylmethylene]-2-thioxo-thiazolidin-4-one], which IC50 is on record?
The IC50 was 0.15 µM.

How did the IC50 turn out when `O=C1NC(=S)SC1=Cc1ccc2c(c1)N(C(=O)c1cnc3ccccc3n1)CCO2` [Example 43, 5-[4-(Quinoxaline-2-carbonyl)-3,4-dihydro-2H-1,4-benzoxazin-6-ylmethylene]-2-thioxo-thiazolidin-4-one] was run?
Its IC50 is 0.565 µM.

How did the IC50 turn out when `COC(=O)CCCCCCC(=O)N1CCOc2ccc(C=C3SC(=S)NC3=O)cc21` [Example 44, 8-Oxo-8-[6-(4-oxo-2-thioxo-thiazolidin-5-ylidenemethyl)-2,3-dihydro-1,4-benzoxazin-4-yl]-octanoic acid methyl ester] was run?
The IC50 was 0.018 µM.

How did the IC50 turn out when `O=C1NC(=S)SC1=Cc1ccc2c(c1)N(C(=O)c1cc(C(F)(F)F)cc(C(F)(F)F)c1)CCO2` [Example 45, 5-[4-(3,5-Bis-trifluoromethyl-benzoyl)-3,4-dihydro-2H-1,4-benzoxazin-6-ylmethylene]-2-thioxo-thiazolidin-4-one] was run?
Its IC50 is 0.76 µM.

`O=C1NC(=S)SC1=Cc1ccc2c(c1)N(C(=O)c1cc(F)cc(F)c1)CCO2` [Example 46, 5-[4-(3,5-Difluoro-benzoyl)-3,4-dihydro-2H-1,4-benzoxazin-6-ylmethylene]-2-thioxo-thiazolidin-4-one] was tested. Which IC50 did it give?
Its IC50 is 0.372 µM.

Which IC50 does the source give for `O=C1NC(=S)SC1=Cc1ccc2c(c1)N(C(=O)COc1ccc(Cl)cc1)CCO2` [Example 47, 5-{4-[2-(4-Chloro-phenoxy)-acetyl]-3,4-dihydro-2H-1,4-benzoxazin-6-ylmethylene}-2-thioxo-thiazolidin-4-one] here?
The IC50 was 0.044 µM.

Which IC50 does the source give for `O=C1NC(=S)SC1=Cc1ccc2c(c1)N(C(=O)c1ccc3c(c1)OC(F)(F)O3)CCO2` [Example 48, 5-[4-(2,2-Difluoro-1,3-benzodioxole-5-carbonyl)-3,4-dihydro-2H-1,4-benzoxazin-6-ylmethylene]-2-thioxo-thiazolidin-4-one] here?
Its IC50 is 0.715 µM.

`O=C1NC(=S)SC1=Cc1ccc2c(c1)N(C(=O)c1ccno1)CCO2` [Example 49, 5-[4-(Isoxazole-5-carbonyl)-3,4-dihydro-2H-1,4-benzoxazin-6-ylmethylene]-2-thioxo-thiazolidin-4-one] was tested. Which IC50 did it give?
Its IC50 is 0.245 µM.

Which IC50 does the source give for `COC(=O)c1ccc(OC(=O)N2CCOc3ccc(C=C4SC(=S)NC4=O)cc32)cc1` [Example 50, 6-(4-Oxo-2-thioxo-thiazolidin-5-ylidenemethyl)-2,3-dihydro-1,4-benzoxazine-4-carboxylic acid 4-methoxycarbonyl-phenyl ester] here?
Its IC50 is 0.007 µM.

How did the IC50 turn out when `O=C1NC(=S)SC1=Cc1ccc2c(c1)N(C(=O)c1cc(Cl)sc1Cl)CCO2` [Example 51, 5-[4-(2,5-Dichloro-thiophene-3-carbonyl)-3,4-dihydro-2H-1,4-benzoxazin-6-ylmethylene]-2-thioxo-thiazolidin-4-one] was run?
The IC50 was 0.86 µM.

`Cc1cc(C(=O)N2CCOc3ccc(C=C4SC(=S)NC4=O)cc32)no1` [Example 52, 5-[4-(5-Methyl-isoxazole-3-carbonyl)-3,4-dihydro-2H-1,4-benzoxazin-6-ylmethylene]-2-thioxo-thiazolidin-4-one] was tested. Which IC50 did it give?
The IC50 was 0.115 µM.

Which IC50 does the source give for `O=C1NC(=S)SC1=Cc1ccc2c(c1)N(C(=O)c1sccc1Cl)CCO2` [Example 53, 5-[4-(3-Chloro-thiophene-2-carbonyl)-3,4-dihydro-2H-1,4-benzoxazin-6-ylmethylene]-2-thioxo-thiazolidin-4-one] here?
Its IC50 is 0.265 µM.

How did the IC50 turn out when `O=C1NC(=S)SC1=Cc1ccc2c(c1)N(C(=O)c1ccccn1)CCO2` [Example 54, 5-[4-(Pyridine-2-carbonyl)-3,4-dihydro-2H-1,4-benzoxazin-6-ylmethylene]-2-thioxo-thiazolidin-4-one] was run?
Its IC50 is 0.445 µM.

`O=C1NC(=S)SC1=Cc1ccc2c(c1)N(C(=O)Nc1cccc(C(F)(F)F)c1)CCO2` [Example 55, 6-(4-Oxo-2-thioxo-thiazolidin-5-ylidenemethyl)-2,3-dihydro-1,4-benzoxazine-4-carboxylic acid (3-trifluoromethyl-phenyl)-amide] was tested. Which IC50 did it give?
The IC50 was 0.005 µM.

For `O=C1NC(=S)SC1=Cc1ccc2c(c1)N(C(=O)Nc1ccccc1OC(F)(F)F)CCO2` [Example 56, 6-(4-Oxo-2-thioxo-thiazolidin-5-ylidenemethyl)-2,3-dihydro-1,4-benzoxazine-4-carboxylic acid (2-trifluoromethoxy-phenyl)-amide], which IC50 is on record?
The IC50 was 0.225 µM.

Which IC50 does the source give for `Cc1ccc(NC(=O)N2CCOc3ccc(C=C4SC(=S)NC4=O)cc32)cc1` [Example 57, 6-(4-Oxo-2-thioxo-thiazolidin-5-ylidenemethyl)-2,3-dihydro-1,4-benzoxazine-4-carboxylic acid p-tolylamide] here?
The IC50 was 0.095 µM.

— patent US20040138199A1, “Benzoxazines and derivatives thereof as therapeutic agents” (priority 2002, published 2004)
